Reference: patent publication US11512224B2, “Water-based coating composition and production method of the same” (TOYOTA JIDOSHA KABUSHIKI KAISHA, priority 2018, dated 2022)

Assay: Solubility in water at 20° C.
Conditions: for Solubility of organic solvent in water: 20° C.; for Solubility of curing catalyst in water: under atmospheric pressure at 20° C.

CC(C)O [IPA, 2-propanol]
Solubility of organic solvent in water: ≥ 10 or g/100 ml
Solubility of organic solvent in water (listed as 2-propanol): ≥ 10 g/100 ml

C1CCC2=NCCCN2CC1 [DBU, diazabicycloundecene]
Solubility of curing catalyst in water: 5 or greater g/100 ml
Solubility of curing catalyst in water (listed as diazabicycloundecene): ≥ 0.5 g/100 ml

C1CCC2=NCCCN2CC1.Cc1ccc(S(=O)(=O)O)cc1 [DBU salt, diazabicycloundecene p-toluenesulfonate]
Solubility of curing catalyst in water (listed as diazabicycloundecene p-toluenesulfonate, p-toluenesulfonate): ≥ 0.5 g/100 ml
Solubility of curing catalyst in water (p-toluenesulfonate): 5 or greater g/100 ml

C1CN=C2CCCN2C1 [DBN, diazabicyclononene]
Solubility of curing catalyst in water: 5 or greater g/100 ml
Solubility of curing catalyst in water (listed as diazabicyclononene): ≥ 0.5 g/100 ml

COCC(C)O (stereo not shown) [PGME, 1-methoxy-2-propanol]
Solubility of organic solvent in water: ≥ 10 or g/100 ml
Solubility of organic solvent in water (listed as 1-methoxy-2-propanol): ≥ 10 g/100 ml
